US20260183396A1, “CXCR3 OVEREXPRESSION IN CAR-NK CELLS PRIMES MIGRATION/HOMING INTO THE TUMOR MICROENVIRONMENT” (DANA-FARBER CANCER INSTITUTE, INC., priority 2022, published 2026)

Tests used:
[1] = test system: H2591 MPM cells; experiment: NK cell migration assay towards H2591 spheroids; assay type: cell-based, human
Method: NK cell infiltration assay. Immune cell infiltration was assessed as previously described (Kitajima et al., Cancer Discov. 9:34-45 (2019); Mahadevan et al., Cancer Discov. 11:1952-1969 (2021)). Briefly, mesothelioma cancer cell spheroids (H2591, H2461, H226) were generated by seeding 5×10^5 cells in suspension in a ULA dish for 24 hours. […] Samples were then pelleted and resuspended in type I rat tail collagen (Corning) at a concentration of 2.5 mg/mL following the addition of 10×PBS with phenol red and pH adjustment using NaOH. pH 7.0-7.5 was confirmed using PANPEHA Whatman paper (Sigma-Aldrich). Cells and collagen were kept on ice to prevent polymerization. […]
For quantification, images were captured on a Nikon Eclipse 80i fluorescence microscope equipped with Z-stack (Prior) and CoolSNAP CCD camera (Roper Scientific). […] Quantification of immune cell infiltration into the 3D tumor microenvironment was performed by measuring the total cell area of cell tracker dye in the entire gel region. For the experiment with the CXCR3 neutralizing antibody (R&D MAB160; FIG. 6B), staining was quantified in a square region in the center of the channel to focus on effects of CXCR3 ligands released by tumor cells. Percent dead cell quantification was performed as in PDOTS as described above. […]

[2] = test system: CXCL10; experiment: CXCL10 release from MPM PDOTS/explants; assay type: cell-based, human; conditions: MPM PDOTS, specific samples
Method: Patient-derived organotypic tumor spheroids (PDOTS). PDOTS were generated as previously described (Jenkins et al., Cancer Discov. 8:196-215 (2018); Aref et al., Lab Chip 18:3129-3143 (2018)). Briefly, fresh tumor specimens were minced in a 15 mL falcon tube in prewarmed to 37° C. full media (DMEM from Thermo Fisher Scientific+10% FBS)+100 U/mL collagenase type IV (Life Technologies) and 50 μg/mL dNase I (Roche) for approximately 20 minutes using sterile scissors and pipetting. Dissociated material was strained over 100-μm filter and 40-μm filters to generate S1 (>100 μm), S2 (40-100 μm), and S3 (<40 μm) spheroid fractions, which were subsequently maintained in ultralow-attachment (ULA) tissue culture plates (Corning). […] S2 fractions were used for ex vivo culture by resuspending them in type I rat tail collagen (Corning) at a concentration of 2.8 mg/mL prior to loading into the center gel region of the 3-D microfluidic culture device (AIM Biotech) and incubation for 40 minutes at 37° C. in humidity chambers to allow for polymerization. Collagen hydrogels containing PDOTS were hydrated with media with or without indicated treatments. TAK-676 was provided by Takeda and diluted in dH20. Recombinant human interferon beta (100 ng/ml; R&D Systems) was used as a positive control downstream of STING for STAT1 pathway activation. […]

[3] = test system: MPM cell lines; experiment: NK cell killing assay; assay type: cell-based, human; conditions: NK co-culture, only with MPM cells expressing STING
Method: NK cell killing assay. Target cells (MPM cell lines) were detached via trypsinization, labelled with CellTrace Violet (CTV, LifeTechnologies) and then seeded in a 96-well plate at a cell density of 25,000 cells per well. […] After 6 hours of co-culture, the cells were harvested and incubated with an antibody for the apoptosis marker Annexin V (PE) and the live/dead stain 7-AAD (Biolegend). Cells were analyzed on a BD LSRFortessa with FACSDiva software (BD Biosciences). Data were analyzed using FlowJo software version 10.5.3. The apoptotic cells were evaluated by gating on the CTV+ population and represented as percentage live or dead (late apoptotic) cells. Apoptotic cell analysis was conducted using NK cells extracted from as many as 4 different healthy donors per target MPM cell line to incorporate baseline donor variability.

[4] = test system: H226 MPM cells; experiment: NK cell migration assay towards H226 spheroids; assay type: cell-based, human
Method: NK cell infiltration assay. Immune cell infiltration was assessed as previously described (Kitajima et al., Cancer Discov. 9:34-45 (2019); Mahadevan et al., Cancer Discov. 11:1952-1969 (2021)). Briefly, mesothelioma cancer cell spheroids (H2591, H2461, H226) were generated by seeding 5×10^5 cells in suspension in a ULA dish for 24 hours. […] Samples were then pelleted and resuspended in type I rat tail collagen (Corning) at a concentration of 2.5 mg/mL following the addition of 10×PBS with phenol red and pH adjustment using NaOH. pH 7.0-7.5 was confirmed using PANPEHA Whatman paper (Sigma-Aldrich). Cells and collagen were kept on ice to prevent polymerization. The spheroid-collagen suspension was then injected into the central gel region of the 3D DAX-1 microfluidic cell culture chip (AIM Biotech). Microfluidic devices were utilized as previously described (Aref et al., Lab Chip 18:3129-3143 (2018)), with a central region containing the cell-collagen mixture in a 3D microenvironment (3×10^4 cells H2591 and H2461, 2× 10^4 cells H226 in 10 μL), flanked by 2 media channels. After injection, collagen hydrogels containing cells were incubated for 40 minutes at 37° C. in humidity chambers, then hydrated with culture media, with labeled primary NK cells (ET ratio 2:1) added to one of the side channels. Primary NK cells were labeled with Cell Tracker Red (Thermo Fisher Scientific) following manufacturer's instructions. After 96 hours of incubation, viability staining of cancer cell spheroids and infiltrated immune cells was performed (20-minute incubation with 1 μg/mL solution of Propidium Iodide; Thermo Fisher Scientific). For the experiment with the CXCR3 neutralizing antibody (R&D MAB160), NK cells were pre-treated for 30 minutes prior to loading.
For quantification, images were captured on a Nikon Eclipse 80i fluorescence microscope equipped with Z-stack (Prior) and CoolSNAP CCD camera (Roper Scientific). Image capture and analysis was performed using NIS-Elements AR software package. Whole device images were achieved by stitching in multiple captures. Quantification of immune cell infiltration into the 3D tumor microenvironment was performed by measuring the total cell area of cell tracker dye in the entire gel region. For the experiment with the CXCR3 neutralizing antibody (R&D MAB160; FIG. 6B), staining was quantified in a square region in the center of the channel to focus on effects of CXCR3 ligands released by tumor cells. Percent dead cell quantification was performed as in PDOTS as described above.
Immune cell migration assays were performed as previously described (Kitajima et al., Cancer Discov. 9:34-45 (2019)). […]

[5] = test system: STING; experiment: STING immunoblotting in NK cells and TILs; assay type: cell-based, human
Method: Immunoblotting. […] Imaging of blots and was performed using the LI-COR Odyssey system.

[6] = test system: MPM PDOTS; experiment: PDOTS live/dead quantification ex vivo; assay type: cell-based
Method: Patient-derived organotypic tumor spheroids (PDOTS). […] Briefly, fresh tumor specimens were minced in a 15 mL falcon tube in prewarmed to 37° C. full media (DMEM from Thermo Fisher Scientific+10% FBS)+100 U/mL collagenase type IV (Life Technologies) and 50 μg/mL dNase I (Roche) for approximately 20 minutes using sterile scissors and pipetting. Dissociated material was strained over 100-μm filter and 40-μm filters to generate S1 (>100 μm), S2 (40-100 μm), and S3 (<40 μm) spheroid fractions, which were subsequently maintained in ultralow-attachment (ULA) tissue culture plates (Corning). […] S2 fractions were used for ex vivo culture by resuspending them in type I rat tail collagen (Corning) at a concentration of 2.8 mg/mL prior to loading into the center gel region of the 3-D microfluidic culture device (AIM Biotech) and incubation for 40 minutes at 37° C. in humidity chambers to allow for polymerization. […]
PDOTS immunofluorescence and live/dead quantification. […] Following incubation with the dyes (20 minutes at room temperature in the dark for AO/PI or 45 minutes for Hoechst 33342/PI), images were captured using 4× objective of a Nikon Eclipse 80i fluorescence microscope equipped with automated motorized stage (Proscan), Z-stack (Prior), and Zyla 5.5 sCMOS camera (Andor). […] Live and dead cell quantitation was performed by measuring total cell area of each dye.

For `Nc1ncnc2c1ncn2[C@@H]1O[C@@H]2COP(=O)([S-])O[C@@H]3[C@H](O)[C@@H](COP([O-])(=S)O[C@H]2[C@H]1O)O[C@H]3n1cnc2c(N)ncnc21.[Na+].[Na+]` (stereo partly drawn) [ADU-S100], the “migration of cNK cells” value [1] was “increased migration”, the “migration of cNK overexpressing CXCR3” value [1] was “decreased migration” and the CXCL10 release [2] was “induced CXCL10 release”. The “apoptosis of tumor cells” value [3] was “enhanced”, the “CAR-NK CXCR+ cell migration” value [4] was “increased” and the “CAR-NK control cell migration” value [4] was “did not affect”. The “migration of cNK cells” value [4] was “increased migration”, the “migration of cNK overexpressing CXCR3” value [4] was “decreased migration” and the “time within which STING was degraded” value ([5]; NK cells) was 3 to 6 h. The “T-cell STING degradation” value ([5]; T-cells, STING phosphorylated and activated) was “minimally degraded”, the “specimens approximating clinical criteria for response with >30% decrease in cell area, p<0.05” value ([6]; 35 MPM patient specimens ex vivo) was 7 specimens and the “primary NK cell response in MPM PDOTS” value ([6]; combined treatment with primary NK cells, cells from 2 out of 3 donors) was “significantly enhanced”.
